Test results as given in patent US7354940B2, “2,5-dioxoimidazolidin-4-yl acetamines and analogues as inhibitors of metalloproteinase mmp12” (AstraZeneca AB, priority 2002, dated 2008).

What follows are molecules tested against T1, Recombinant human MMP12 catalytic domain (Homo sapiens, UniProt P39900) (assay: Isolated enzyme assay (MMP12 enzyme assay)). Conditions: fluorogenic substrate Mac-Pro-Cha-Gly-Nva-His-Ala-Dpa-NH2, 60 minutes at room temperature, pH 7.3.
T1 construct: Recombinant human MMP12 catalytic domain; made in house
T1 sequence (P39900 106-263 limits assumed): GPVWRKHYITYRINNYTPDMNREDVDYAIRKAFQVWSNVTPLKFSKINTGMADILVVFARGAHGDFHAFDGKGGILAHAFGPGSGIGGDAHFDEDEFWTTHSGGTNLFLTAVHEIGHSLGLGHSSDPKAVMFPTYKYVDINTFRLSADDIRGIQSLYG
Assay type: biochemical
Protocol: Recombinant human MMP12 catalytic domain may be expressed and purified as described by Parkar A. A. et al, (2000), Protein Expression and Purification, 20:152. The purified enzyme can be used to monitor inhibitors of activity as follows: MMP12 (50 ng/ml final concentration) is incubated for 60 minutes at room temperature with the synthetic substrate Mac-Pro-Cha-Gly-Nva-His-Ala-Dpa-NH2 in assay buffer (0.1M “Tris-HCl” (trade mark) buffer, pH 7.3 containing 0.1M NaCl, 20 mM CaCl2, 0.020 mM ZnCl and 0.05% (w/v) “Brij 35 ” (trade mark) detergent) in the presence (5 concentrations) or absence of inhibitors. Activity is determined by measuring the fluorescence at λex 320 nm and λem 405 nm. Percent inhibition is calculated as follows: % Inhibition is equal to the [Fluorescenceplus inhibitor−Fluorescencebackground] divided by the [Fluorescenceminus inhibitor−Fluorescenebackground].

IC50	SMILES
4 nM	COc1cccc(-c2ccc(CCNC(=O)CC3NC(=O)NC3=O)cc2)c1 (stereo not shown) [Example 24, 2-(2,5-Dioxoimidazolidin-4-yl)-N-[2-(3′-methoxy-biphenyl-4-yl)ethyl]-acetamide]
32 nM	O=C(CC1NC(=O)NC1=O)NCCc1ccc(-c2ccccc2)cc1 (stereo not shown) [Example 5, N-(2-Biphenyl-4-yl-ethyl)-2-(2,5-dioxoimidazolidin-4-yl)-acetamide]
22 nM	O=C(CC1NC(=O)NC1=O)NCCc1ccc(-c2ccc(F)cc2)cc1 (stereo not shown) [Example 1, 2-(2,5-Dioxoimidazolidin-4-yl)-N-[2-(4′-fluoro-biphenyl-4-yl)-ethyl]-acetamide]
5 nM	O=C(CC1NC(=O)NC1=O)NCCc1ccc(-c2cc3ccccc3s2)cc1 (stereo not shown) [Example 27, N-[2-(4-Benzo[b]thiophen-2-yl-phenyl)ethyl]-2-(2,5-dioxoimidazolidin-4-yl)-acetamide]
15 nM	Cc1cccc(-c2ccc(CCNC(=O)CC3NC(=O)NC3=O)cc2)c1 (stereo not shown) [Example 22, 2-(2,5-Dioxoimidazolidin-4-yl)-N-[2-(3′-methyl-biphenyl-4-yl)ethyl]-acetamide]
17 nM	CC(=O)c1ccc(-c2ccc(CCNC(=O)CC3NC(=O)NC3=O)cc2)cc1 (stereo not shown) [Example 26, N-[2-(4′-Acetyl-biphenyl-4-yl)ethyl]-2-(2,5-dioxoimidazolidin-4-yl)-acetamide]
7 nM	N#Cc1ccc(-c2ccc(CCNC(=O)CC3NC(=O)NC3=O)cc2)cc1 (stereo not shown) [Example 2, N-[2-(4′-Cyano-biphenyl-4-yl)-ethyl]-2-(2,5-dioxoimidazolidin-4-yl)-acetamide]
6 nM	O=C(CC1NC(=O)NC1=O)NCCc1ccc(-c2cccs2)cc1 (stereo not shown) [Example 14, 2-(2,5-Dioxoimidazolidin-4-yl)-N-[2-(4-thiophen-2-yl-phenyl)ethyl]-acetamide]
8 nM	O=C(CC1NC(=O)NC1=O)NCCc1ccc(-c2cc(Cl)cc(Cl)c2)cc1 (stereo not shown) [Example 21, N-[2-(3′,5′-Dichloro-biphenyl-4-yl)ethyl]-2-(2,5-dioxoimidazolidin-4-yl)-acetamide]
6 nM	O=C(CC1NC(=O)NC1=O)NCCc1ccc(-c2cc3ccccc3o2)cc1 (stereo not shown) [Example 23, N-[2-(4-Benzofuran-2-yl-phenyl)ethyl]-2-(2,5dioxoimidazolidin-4-yl)-acetamide]
